Measured values reported in patent publication US20040121941A1, “Novel inhibitors of prenylated pyrophosphate consuming enzymes” (priority 1999, published 2004).

Target: T1, protein:geranylgeranyl transferase-1 (PGGT-1) (Bos taurus, UniProt Q5EAD5)
T1 construct: A crude PGGT-1 preparation was isolated from bovine brain; from tissue; host or cells: bovine brain
Assay: Protein:geranylgeranyl transferase-1 (PGGT-1) activity assay, [3H]-GGPP and sepharose-coupled peptide pepCsep
Format: biochemical
Conditions: PGGT activity in % of control (without analogue), bovine brain enzyme, Table I
Experimental: PFT activity was determined using a C-terminal peptide of pre-p21^N-ras coupled to sepharose beads as substrate (pepAsep) as described previously (Cohen et al. Biochem. Pharmacol. 57 (1999), 365-373). The experimental conditions (25 μL reaction mixture) were as follows: 80 pmol/25 μL sepharose-coupled peptide, 0.7 μM of [^3H]-FPP (American Radiolabeled Chemicals Inc.; specific radioactivity 15 Ci/mmol) and 13 μL of rat brain enzyme preparation. Incubation was performed at 37° C. for 30 min. For the determination of IC50 values of the FPP analogues, the assay was performed three times in the presence of different concentrations of compound 5 (example 1) in duplicate. Determination of PGGT-1 activity was performed in a similar manner as described for PFT activity and has also been described previously (Cohen et al. Biochem. Pharmacol. 57 (1999), 365-373). […] The experimental conditions were as follows: 25 μL incubation mixture contained 2.5 μL (1 nmol) pepCsep, 1 μM [^3H]-GGPP (American Radiolabeled Chemicals Inc.; specific radioactivity 15 Ci/mmol), 3 μL of bovine brain enzyme preparation, 50 μM ZnCl2, 0.5 mM MgCl2, 1 mM dithiothreitol, 0.004% Triton X-100, 50 mM Tris-HCl (pH 7.4). […]
The radioactivity bound to the sepharose was strongly dependent on the presence of the cysteine residue in pepCsep and the reaction was linear up to 40 min and up to 5 μL of the enzyme preparation. […]

- relative activity at 10 μM (compound at 10 μM): 36 ± 9%
- relative activity at 100 μM (compound at 100 μM): 28 ± 5%
Substance: [Bis(benzyloxycarbonyl)lysyl]-[ε-aminocaproyl]-[β-(nitrophenylaminocarbonyl)-β-alanyl]-[phosphoserine] [compound 378]
